These results are taken from patent US20240261257A1, “METHODS OF TREATING BACTERIAL INFECTIONS” (Sheba Impact Ltd., priority 2023, published 2024).

Assay [1] deals with clinical isolates of MRSA USA300. In words: inhibitory effect on clinical isolates of MRSA USA300 (FIGS. 1A-B). The class given is cell-based, Staphylococcus aureus. The method, then:
(§1) Iron-free enterobactin from E. coli was purchased from Sigma-Aldrich (E3910) and from EMC (Tübingen, Germany), iron-free salmochelin S4 was purchased from EMC (Tübingen, Germany).
(§2) Bacterial strains were provided by the Clinical Microbiology Laboratory at Sheba Medical Center.
(§3) Bacterial final inoculum was 5×10^5 colony-forming units ml^−1. Enterobactin and salmochelin were dissolved in 100% dimethylsulfoxide (DMSO) to a stock solution of 10 μM and further diluted using CAMHB to final concentrations.

For another assay, the system named is MRSA SA 196. In words: broth microdilution growth inhibition (CLSI), MRSA SA 196. The class given is cell-based, S. aureus. Conditions: CAMHB broth microdilution, read-out: concentration (μM) which inhibits 50% (or more) growth. The method, then:
as §1, §2, §3
For orientation: Broth dilution looks for growth in wells or tubes with falling amounts of substance.

For a further assay, the system named is MSSA SA 256. In words: broth microdilution growth inhibition (CLSI), MSSA SA 256. Conditions: CAMHB broth microdilution, read-out: concentration (μM) which inhibits 50% (or more) growth. In kind it is cell-based, S. aureus. The method, then:
as §1, §2, §3

A further assay deals with MRSA SA 198 USA300. In words: broth microdilution growth inhibition (CLSI), MRSA SA 198. In kind it is cell-based, S. aureus. Conditions: CAMHB broth microdilution, read-out: concentration (μM) which inhibits 50% (or more) growth. As for the experimental part:
as §1, §2, §3

The next assay has as its system MRSA SA 255. Nature of the assay: broth microdilution growth inhibition (CLSI), MRSA SA 255. In kind it is cell-based, S. aureus. The conditions noted are these: CAMHB broth microdilution, read-out: concentration (μM) which inhibits 50% (or more) growth. The method, then:
as §1, §2, §3

The subject of the next assay is VRE 195. In words: inhibitory effect on clinical isolate VRE 195. In kind it is cell-based, vancomycin resistant Enterococci. The conditions noted are these: FIG. 2A, FIG. 3A. As for the experimental part:
as §1, §2, §3

Another assay deals with VRE 197. In words: inhibitory effect on clinical isolate VRE 197. Conditions: FIG. 2B, FIG. 3B. In kind it is cell-based, vancomycin resistant Enterococci. As for the experimental part: as §1, §2, §3
The subject of another assay is S. aureus ATCC 25923. Nature of the assay: broth microdilution growth inhibition (CLSI), S. aureus ATCC 25923. The class given is cell-based. The conditions noted are these: CAMHB broth microdilution, read-out: concentration (μM) which inhibits 50% (or more) growth. As for the experimental part: as §1, §2, §3
For another assay, the system named is MSSA SA 197 USA300. In words: broth microdilution growth inhibition (CLSI), MSSA SA 197 USA300. In kind it is cell-based, S. aureus. The conditions noted are these: CAMHB broth microdilution, read-out: concentration (μM) which inhibits 50% (or more) growth. The method, then:
as §1, §2, §3

The test system of a further assay is MRSA SA 742 USA300. In words: broth microdilution growth inhibition (CLSI), MRSA SA 742 USA300. In kind it is cell-based, S. aureus. Conditions: CAMHB broth microdilution, read-out: concentration (μM) which inhibits 50% (or more) growth. The method, then:
as §1, §2, §3

A further assay has as its system S. aureus. In words: antimicrobial activity against S. aureus (combinations, iron ions; strain not named). The class given is cell-based. Conditions: iron ions added; FIGS. 6A-B. The method, then:
as §1, §2, §3

Bounds are passed on as bounds.

Regarding `O=C(N[C@H]1COC(=O)[C@@H](NC(=O)c2cc([C@@H]3O[C@H](CO)[C@@H](O)[C@H](O)[C@H]3O)cc(O)c2O)COC(=O)[C@@H](NC(=O)c2cc([C@@H]3O[C@H](CO)[C@@H](O)[C@H](O)[C@H]3O)cc(O)c2O)COC1=O)c1cccc(O)c1O` [Salmochelin, Salmochelin S4], the “inhibitory effect on clinical isolates of MRSA USA300” value in assay [1] is on record as “inhibitory effect”. Besides, the IC50 in the assay on MRSA SA 196 was 2.5 µM; with MSSA SA 256 it was 5 µM; with MRSA SA 198 USA300 it was 5 µM; with MRSA SA 255, 5 µM; with S. aureus ATCC 25923, 2.4 ± 0.22 µM; in the assay with MSSA SA 197 USA300, 2.5 µM. In the assay with MRSA SA 742 USA300, the IC50 was found to be 3.12 ± 1.25 µM. Besides, in the assay with VRE 195, the “inhibitory effect on clinical isolates of VRE 195” value is “inhibitory effect”. Besides, the “inhibitory effect on clinical isolates of VRE 197” value with VRE 197 is given as “inhibitory effect”. The “antimicrobial activity against S. aureus in the presence of iron ions” value in the assay on S. aureus was “reduce but do not abolish”.

For the compound `O=C(N[C@H]1COC(=O)[C@@H](NC(=O)c2cccc(O)c2O)COC(=O)[C@@H](NC(=O)c2cccc(O)c2O)COC1=O)c1cccc(O)c1O` [Enterobactin, enterobactin], in [1], the “inhibitory effect on clinical isolates of MRSA USA300” value was “inhibitory effect”. In addition, the IC50 with MRSA SA 196 was 5 µM; in the assay with MSSA SA 256 it was over 5 µM; in the assay on MRSA SA 198 USA300 it was over 5 µM; in the assay on MRSA SA 255, over 5 µM; in the assay with S. aureus ATCC 25923, 6 ± 2.7 µM; in the assay with MSSA SA 197 USA300, over 5 µM. Further, the IC50 in the assay with MRSA SA 742 USA300 was 10 µM. Moreover, the “inhibitory effect on clinical isolates of VRE 195” value with VRE 195 is reported as “inhibitory effect”. Further, in the assay on VRE 197, the “inhibitory effect on clinical isolates of VRE 197” value is recorded as “inhibitory effect”. Besides, the “antimicrobial activity against S. aureus in the presence of iron ions” value in the assay on S. aureus is “reduce but do not abolish”.
